Data as given in patent US9101573B2, “Lanthionine synthetase component C-like proteins as molecular targets for preventing and treating diseases and disorders” (VIRGINIA TECH INTELLECTUAL PROPERTIES, INC., priority 2010, dated 2015).

Tests used:
[1] = test system: PPAR γ; experiment: PPAR γ reporter activity assay on 3T3-L1 pre-adipocytes; assay type: cell-based; conditions: 2.5 μM, 24 hours, vs untreated cells
Procedure: 3T3-L1 cells were plated into white, opaque 96-well plates (BD) 24 hours before transfection and grown in DMEM containing 10% fetal bovine serum (FBS) until 70% confluence. Cells were then co-transfected with 0.2 μg pCMX.PPAR γ expression plasmid expression plasmid, 0.2 μg pTK.PPRE3x luciferase reporter plasmid driven by the PPRE-containing Acyl-CoA oxidase promoter and 0.2 μg pRL reporter control using the Lipofectamine 2000 transfection reagent (Invitrogen). After 48 hr incubation at 37° C., cells were then treated in replicates of 8 with NSC61610 2.5 μM or DMSO control and incubated for 24 hr at 37° C. After incubation, cells were harvested in reporter lysis reagent and luciferase activity was determined using the Dual Luciferase II reporter assay system (Promega, Madison, Wis.) in Modulus 96-well luminometer (Turner Biosystems, Sunnyvale, Calif.). All values were normalized to control wells to calculate relative luciferase activity.

[2] = test system: pandemic 2009 H1N1 influenza A California/09 virus; experiment: Pandemic H1N1 influenza virus infection in mice; assay type: in vivo
[3] = test system: mouse model of DSS-induced colitis; experiment: DSS-induced colitis (experimental IBD) in C57BL/6J wild-type mice; assay type: in vivo
Procedure: Six to eight week old C57BL/6J wild-type mice (n=38) were housed at the animal facilities at Virginia Tech. in a room maintained at 75° F., with a 12:12 h light-dark cycle starting from 6:00 AM. Mice were randomly divided into four groups: a control group including 8 mice and the other three NSC61610 treatment groups containing 10 mice each. The three treatment groups received 0.5, 10 or 20 mg/kg NSC61610 by orogastric gavage for 7 days. All the mice were challenged with drinking water containing 2.5% DSS, 36,000-44,000 molecular weight (ICN Biomedicals, Aurora, Ohio) for 7 days. Mice were weighed on a daily basis and examined for clinical signs of disease associated with colitis (i.e., perianal soiling, rectal bleeding, diarrhea, and piloerection). For the DSS challenge, the disease activity indices and rectal bleeding scores were calculated using a modification of a previously published compounded clinical score. Briefly, disease activity index consisted of a scoring for diarrhea and lethargy (0-3), whereas rectal bleeding consisted of a visual observation of blood in feces and the perianal area (0-4). Mice in the DSS study were euthanized on day 7 of the DSS challenge. On day 7, mice were euthanized by CO2 narcosis followed by secondary thoracotomy and blood was withdrawn from the heart. Colon, spleen, and MLN were scored based on size and macroscopic inflammatory lesions (0-3), excised, and then crushed to produce single-cell suspensions for flow cytometry.
Colonic sections were fixed in 10% buffered neutral formalin, later embedded in paraffin, and then sectioned ([…]) and stained with H&E stain for histological examination. Colons were blindly graded with a compounded histological score including the extent of (1) leukocyte infiltration. (2) mucosal thickening, and (3) epithelial cell erosion. The sections were graded with a score of 0-4 for each of the previous categories and data were analyzed as a normalized compounded score.
Total RNA was isolated from colons using the RNA isolation Minikit (Qiagen) according to the manufacturer's instructions. Total RNA ([…]) was used to generate complementary DNA (cDNA) template using the iScript cDNA Synthesis Kit (Bio-Rad, Hercules, Calif.). The total reaction volume was 20 μL with the reaction incubated as follows in an MJ MiniCycler: 5 min at 25° C., 30 min at […], 5 min at 85° C., and hold at 4° C. PCR was performed on the cDNA using Taq DNA polymerase (Invitrogen, Carlsbad, Calif.) and using previously described conditions. Each gene amplicon was purified with the MiniElute PCR Purification Kit (Qiagen) and quantitated on an agarose gel by using a DNA mass ladder (Promega). These purified amplicons were used to optimize real-time (RT)-PCR conditions and to generate standard curves. Primer concentrations and annealing temperatures were optimized for the iCycler iQ system (Bio-Rad) for each set of primers using the system's gradient protocol. PCR efficiencies were maintained between 92 and 105% and correlation coefficients above 0.98 for each primer set during optimization and also during the real-time PCR of sample DNA.
Complementary DNA (cDNA) concentrations for genes of interest were examined by real-time quantitative PCR using an iCycler IQ System and the iQ SYBR green supermix (Bio-Rad). A standard curve was generated for each gene using 10-fold dilutions of purified amplicons starting at 5 pg of cDNA and used later to calculate the starting amount of target cDNA in the unknown samples. SYBR green I is a general double-stranded DNA intercalating dye and may therefore detect non-specific products and primer/dimers in addition to the amplicon of interest. In order to determine the number of products synthesized during the real-time PCR, a melting curve analysis was performed on each product. Real-time PCR was used to measure the starting amount of nucleic acid of each unknown sample of cDNA on the same 96-well plate. […]

[4] = test system: mouse model of DSS-induced colitis, PPAR γ fl/fl Cre−, CD4-Cre+ and Lysozyme M-Cre+ mice; experiment: DSS colitis in tissue-specific PPAR γ null mice; assay type: in vivo
Procedure: PPAR γ fl/fl MMTV-Cre− (n=20), tissue-specific PPAR γ fl/fl CD4-Cre+ ([…]) PPAR γ null mice (n=20) and tissue-specific PPAR γ fl/fl Lsozyme M-Cre+ (macrophage-deficient) PPAR γ null mice (n=20) littermates in a C57BL/6J background were generated by using the Cre-lox recombination system as previously described. The mice were housed at the animal facilities at Virginia Tech. in a room maintained at 75° F., with a 12:12 h light-dark cycle starting from 6:00 AM. In each group, 20 mice were randomly divided into two groups: a control group including 10 mice and a NSC61610 treatment groups containing 10 mice respectively. The three treatment groups received 20 mg/kg NSC61610 by orogastric gavage for 6 days. All the mice (n=60) were challenged with drinking water containing 2.5% DSS, 36,000-44,000 molecular weight (ICN Biomedicals, Aurora, Ohio) for 6 days. Mice were weighed on a daily basis and examined for clinical signs of disease associated with colitis (i.e., perianal soiling, rectal bleeding, diarrhea, and piloerection). For the DSS challenge, the disease activity indices and rectal bleeding scores were calculated using a modification of a previously published compounded clinical score. Briefly, disease activity index consisted of a scoring for diarrhea and lethargy (0-3), whereas rectal bleeding consisted of a visual observation of blood in feces and the perianal area (0-4). Mice in the DSS study were euthanized on day 6 of the DSS challenge. On day 6, mice were euthanized by CO2 narcosis followed by secondary thoracotomy and blood was withdrawn from the heart. Colon, spleen, and MLN were scored based on size and macroscopic inflammatory lesions (0-3), excised, and then crushed to produce single-cell suspensions for flow cytometry.

[5] = target: T1, LANCL2 (Mus musculus, UniProt Q9JJK2); experiment: Western blot binding assay between ABA and LANCL2; conditions: RAW 264.7 macrophages treated with ABA for 20 minutes; re-probing western blot; control without ABA showed no band
T1 construct: Proteins were extracted from Raw 264.7 Macrophage using Radio-Immunoprecipitation Assay buffer; endogenous in cells; host or cells: RAW 264.7 macrophages
T1 sequence (Q9JJK2 1-450): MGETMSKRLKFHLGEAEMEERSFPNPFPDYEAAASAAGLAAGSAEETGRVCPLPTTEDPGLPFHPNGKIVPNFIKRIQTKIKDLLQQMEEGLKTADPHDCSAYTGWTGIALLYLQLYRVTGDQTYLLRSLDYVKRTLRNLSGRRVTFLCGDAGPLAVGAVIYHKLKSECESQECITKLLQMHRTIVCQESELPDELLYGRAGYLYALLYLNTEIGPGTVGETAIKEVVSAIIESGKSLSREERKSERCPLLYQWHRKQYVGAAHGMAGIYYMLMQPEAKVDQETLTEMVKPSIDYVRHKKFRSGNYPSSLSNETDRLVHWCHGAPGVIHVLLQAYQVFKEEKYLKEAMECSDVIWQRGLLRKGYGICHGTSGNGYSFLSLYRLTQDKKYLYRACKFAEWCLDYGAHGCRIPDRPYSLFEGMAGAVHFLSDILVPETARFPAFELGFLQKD
Procedure: RAW 264.7 macrophages were cultured with DMEM (Mediatech, Manassas, Va.) containing 10% fetal bovine serum (FBS) in two flasks and grown until 60-70% confluence. RAW 264.7 macrophages in one flask were treated with abscisic acid (SIGMA-ALDRICH) for 20 minutes. RAW 264.7 macrophages in the other flask without ABA were used as control. Proteins were extracted from Raw 264.7 Macrophage using Radio-Immunoprecipitation Assay buffer (RIPA) (SIGMA-ALDRICH) with inhibitors. 10% SDS-PAGE was applied to analyze the proteins in Bio-Rad mini-gel box running condition. For Western blotting, proteins were electrotransferred to nitrocellulose by standard methods along with the Presicion Plus Kaleidoscope Standard (BIO-RAD). Filters were blocked by 5% BSA in TBS-Tween for 1 hour, followed by incubation with rabbit anti-LANCL2 primary antibody (SIGMA-ALDRICH) in TBS-Tween for 6 hours at room temperature. Goat anti-rabbit horseradish peroxidase-conjugated secondary antibodie (Santa Cruz Biotechnology) was used 1:2,000 in TBS-Tween, and protein bands were detected with Immun-Star™ chemiluminescent substrate (BIO-RAD). […] Donkey anti-rat horseradish peroxidase-conjugated secondary antibodie (Santa Cruz Biotechnology) was used 1:2,000 in TBS-Tween, and protein bands were detected with Immun-Star™ chemiluminescent substrate (BIO-RAD).

[6] = target: T2, ligand-binding domain (LBD) of PPAR γ (Homo sapiens, UniProt P37231); experiment: Binding of ABA to PPAR γ LBD (unpublished data)
T2 sequence (P37231 238-503 limits assumed): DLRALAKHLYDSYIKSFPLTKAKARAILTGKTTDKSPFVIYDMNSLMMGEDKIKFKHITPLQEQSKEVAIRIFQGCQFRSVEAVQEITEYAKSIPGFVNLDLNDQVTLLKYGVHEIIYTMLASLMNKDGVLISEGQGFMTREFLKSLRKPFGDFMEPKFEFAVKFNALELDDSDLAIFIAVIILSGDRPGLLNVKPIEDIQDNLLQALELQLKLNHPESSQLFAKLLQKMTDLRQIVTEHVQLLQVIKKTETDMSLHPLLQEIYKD

[7] = 0.5, 10 and 20 mg/kg, day 7 of DSS
[8] = highest concentration, flow cytometry

SMILES: O=C(Nc1cccc(-c2nc3ccccc3[nH]2)c1)c1ccc(C(=O)Nc2cccc(-c3nc4ccccc4[nH]3)c2)cc1 [NSC61610, 1-N,4-N-bis[3-(1H-benzimidazol-2-yl)phenyl]benzene-1,4-dicarboxamide]
- PPAR γ expression (dual luciferase reporter) [1]: significantly elevated
- antigen-specific proliferation of splenocytes stimulated ex vivo with live virus ([2]; day 13 post-infection, irrespective of genotype): higher
- extent of lung congestion and hyperemia (macroscopic and histological score) ([2]; infected mice, 20 mg/kg): reduced
- influenza-related weight loss ([2]; infected mice, 20 mg/kg orogastric gavage daily, vs untreated infected mice): lower weight loss
- body weight ([2]; infected treated mice, by day 13): began to gain weight
- disease activity index (DAI) ([3]; 0.5, 10 and 20 mg/kg BW orogastric gavage, 7 days, 2.5% DSS, vs untreated control mice): significantly reduced
- gross inflammation in MLN [3, 7]: significantly reduced
- gross inflammation in colon [3, 7]: significantly reduced
- gross inflammation in spleen [3, 7]: significantly reduced
- numbers of mesenteric lymph node (MLN) Treg ([3]; flow cytometry): No effect
- percentage of F4/80+CD11b+ macrophages in the colonic lamina propria ([3]; flow cytometry): reduced
- percentage of Treg cells in blood ([3]; flow cytometry): significantly increased
- percentage of Treg cells in colon ([3]; flow cytometry): significantly increased
- percentage of Treg cells in spleen ([3]; flow cytometry): significantly increased
- percentage of CD4+ IL10+ T cells in MLN [3, 8]: significantly increased
- percentage of CD4+ IL10+ T cells in blood [3, 8]: significantly increased
- percentage of CD4+ IL10+ T cells in colon [3, 8]: significantly increased
- percentage of CD4+ IL10+ T cells in spleen [3, 8]: significantly increased
- PPAR γ gene expression in colon ([3]; maximum dose 20 mg/kg): enhanced PPAR γ gene expression significantly
- epithelial erosion (colon histology) ([3]; mice with DSS colitis): significantly reduced
- leukocyte infiltration (colon histology) ([3]; mice with DSS colitis): significantly reduced
- mucosal thickening (colon histology) ([3]; mice with DSS colitis): significantly reduced
- colonic expression of IL-6 ([3]; real-time quantitative PCR): significantly lowered
- colonic expression of MCP-1 ([3]; real-time quantitative PCR): significantly lowered
- colonic expression of TNF-α ([3]; real-time quantitative PCR): significantly lowered
- PPAR γ gene expression in colon ([3]; real-time quantitative PCR, vs control mice): increased
- disease activity index ([4]; 20 mg/kg BW for 6 days during DSS challenge, vs untreated control mice): significantly reduced
- macroscopic inflammatory lesions ([4]; PPAR γ-expressing mice with DSS colitis, 20 mg/kg): significantly reduced
- macroscopic inflammatory lesions ([4]; T cell-specific PPAR γ null mice with DSS colitis, 20 mg/kg): significantly reduced
- effect on IBD in MLNs and spleens ([4]; macrophage-specific PPAR γ null mice, 20 mg/kg): abrogated

SMILES: CC1=CC(=O)CC(C)(C)[C@@]1(O)/C=C/C(C)=C\C(=O)O [abscisic acid, [S-(Z,E)]-5-(1-Hydroxy-2,6,6-trimethyl-4-oxo-2-cyclohexen-1-yl)-3-methyl-2,4-pentanedienoic acid]
- band with anti-ABA antibody at the LANCL2 location on the membrane [5]: clear band
- direct binding to the LBD of PPAR γ [6]: does not bind directly
